US20220153734A1, “Pyrazolopyridine Compounds For IRE1 Inhibition” (Optikira, LLC, priority 2019, published 2022)
pIC50: −log10 of the molar value.

How the values were obtained:
IRE1α = biological target: T1, IRE1α (Homo sapiens, UniProt O75460); test: Biochemical assay: inhibition of RNase activity of IRE1α; details: enzyme 0.325 nM, substrate 100 nM, 20 minutes
T1 construct: purchased Signal Chem E31-11G
Experimental: Biochemical Assay: Inhibition of RNase Activity of IRE1α
The RNase reactions were performed in 384 well black ProxiPlate-384 Plus plates (PERKIN Elmer) using 50 mM Tris assay buffer with 0.5 mM MgCl2, 10 mM KCl, 0.03% Tween, 2 mM DTT and 1% DMSO. Test compounds were prepared on the day of assay and dispensed using D300 digital dispenser as a 10-point ½ log dilution series in duplicate, normalized to a final DMSO concentration of […]. Test compounds were pre-incubated for 30 min at room temperature with IRE1α kinase (E31-11G from Signal Chem) in 2.5 μL of assay buffer. Then 2.5 μl of assay buffer containing substrate (5′ Alexa Fluor 647-rCrArU rGrUrC rCrGrC rArGrC rGrCrArUrG-Iowa Black RQ quencher 3′) added, giving a final concentration of enzyme of 0.325 nM and of substrate of 100 nM. After 20 minutes incubation at room temperature the reactions were stopped by added 5 μL of 5M urea, incubated at room temperature for 10 minutes and fluorescence measured on a plate reader (EnVision, PerkinElmer). IC50 values calculated by fitting a sigmoidal curve to percent inhibition of control versus compound concentration.

[1] = tested on: ARPE-19 cells stably expressing XBP1 (a.a. 1-376); test: Cellular XBP1 splicing assay (NanoLuc luciferase, thapsigargin); assay type: cell-based; details: thapsigargin 150 nM
Procedure, shortened: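 ARPE-19 cells carrying an XBP1(1-376)-NanoLuc splicing reporter were pretreated with compound (10-point ½-log series, 0.117% DMSO) for 30 min, then stressed with 150 nM thapsigargin for 4 h at 37° C. Luminescence was read, and IC50 values came from sigmoidal fits of percent inhibition of control.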

T1 sequence (O75460 468-977 limits assumed): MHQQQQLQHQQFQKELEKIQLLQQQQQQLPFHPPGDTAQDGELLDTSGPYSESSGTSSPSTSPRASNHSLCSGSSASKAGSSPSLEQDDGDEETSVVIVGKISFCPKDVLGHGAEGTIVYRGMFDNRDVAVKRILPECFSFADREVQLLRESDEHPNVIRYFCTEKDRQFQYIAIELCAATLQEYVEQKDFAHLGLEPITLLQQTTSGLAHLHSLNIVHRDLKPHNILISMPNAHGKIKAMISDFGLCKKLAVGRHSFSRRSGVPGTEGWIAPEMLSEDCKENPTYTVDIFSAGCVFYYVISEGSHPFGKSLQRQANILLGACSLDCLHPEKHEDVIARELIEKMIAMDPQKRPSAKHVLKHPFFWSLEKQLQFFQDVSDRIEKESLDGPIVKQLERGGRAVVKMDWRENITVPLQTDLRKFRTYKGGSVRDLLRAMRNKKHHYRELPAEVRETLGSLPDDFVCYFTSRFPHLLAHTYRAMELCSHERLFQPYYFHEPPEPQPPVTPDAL

Row | Structure (SMILES) | pIC50 (IRE1α) | pIC50 ([1]; 4 hour) | pIC50 ([1]; Homo sapiens, ARPE-19, 4 h)
1 | CC(CF)NC1CC=C(c2cnc(N)c3c(-c4ccc(NS(=O)(=O)Cc5ccccc5Cl)c(F)c4)nn(C(C)C)c23)CC1 (single isomer, unassigned) [Compound B45, N-(4-(4-amino-7-(4-((1-fluoropropan-2-yl)amino)cyclohex-1-en-1-yl)-14sopropyl-1H-pyrazolo[4,3-c]pyridin-3-yl)-2-fluorophenyl)-1-(2-chlorophenyl)methanesulfonamide] | 8.47 | 7.33 | –
2 | CC(F)CNC1CC=C(c2cnc(N)c3c(-c4ccc(NS(=O)(=O)c5ccccc5Cl)c(F)c4)nn(C(C)C)c23)CC1 (single isomer, unassigned) [Compound B46, N-(4-(4-amino-7-(4-((2-fluoropropyl)amino)cyclohex-1-en-1-yl)-1-isopropyl-1H-pyrazolo[4,3-c]pyridin-3-yl)-2-fluorophenyl)-2-chlorobenzenesulfonamide] | 8.33 | – | 7.66
3 | CC(F)CNC1CC=C(c2cnc(N)c3c(-c4ccc(NS(=O)(=O)c5ccccc5Cl)c(F)c4)nn(C(C)C)c23)CC1 (single isomer, unassigned) [Compound B47, N-(4-(4-amino-7-(4-((2-fluoropropyl)amino)cyclohex-1-en-1-yl)-1-isopropyl-1H-pyrazolo[4,3-c]pyridin-3-yl)-2-fluorophenyl)-2-chlorobenzenesulfonamide] | 8.35 | 7.77 | –
4 | CC(C)n1nc(-c2ccc(NS(=O)(=O)Cc3ccccc3Cl)c(F)c2)c2c(N)ncc(C3=CCC(NC4CC(F)(F)C4)CC3)c21 (single isomer, unassigned) [Compound B48, N-(4-(4-amino-7-(4-((3,3-difluorocyclobutyl)amino)cyclohex-1-en-1-yl)-1-isopropyl-1H-pyrazolo[4,3-c]pyridin-3-yl)-2-fluorophenyl)-1-(2-chlorophenyl)methanesulfonamide] | 8.89 | 7.89 | –
5 | CC(C)n1nc(-c2ccc(NS(=O)(=O)Cc3ccccc3Cl)c(F)c2)c2c(N)ncc(C3=CCC(NC4CC(F)(F)C4)CC3)c21 (single isomer, unassigned) [Compound B49, N-(4-(4-amino-7-(4-((3,3-difluorocyclobutyl)amino)cyclohex-1-en-1-yl)-1-isopropyl-1H-pyrazolo[4,3-c]pyridin-3-yl)-2-fluorophenyl)-1-(2-chlorophenyl)methanesulfonamide] | 8.39 | 7.19 | –
6 | CC(C)n1nc(-c2ccc(NS(=O)(=O)c3ccccc3Cl)c(F)c2)c2c(N)ncc(C3=CCC(NC4CC(F)(F)C4)CC3)c21 (single isomer, unassigned) [Compound B50] | 8.30 | 7.60 | –
7 | CC(C)n1nc(-c2ccc(NS(=O)(=O)c3ccccc3Cl)c(F)c2)c2c(N)ncc(C3=CCC(NC4CC(F)(F)C4)CC3)c21 (single isomer, unassigned) [Compound B51] | 7.51 | 6.72 | –
8 | COCCNC1CC=C(c2cnc(N)c3c(-c4ccc(NS(=O)(=O)c5ccccc5Cl)c(F)c4)nn(C(C)C)c23)CC1 (single isomer, unassigned) [Compound B52, N-(4-(4-amino-1-isopropyl-7-(4-((2-methoxyethyl)amino)cyclohex-1-en-1-yl)-1H-pyrazolo[4,3-c]pyridin-3-yl)-2-fluorophenyl)-2-chlorobenzenesulfonamide] | 8.11 | 8.01 | –
9 | COCCNC1CC=C(c2cnc(N)c3c(-c4ccc(NS(=O)(=O)c5ccccc5Cl)c(F)c4)nn(C(C)C)c23)CC1 (single isomer, unassigned) [Compound B53, N-(4-(4-amino-1-isopropyl-7-(4-((2-methoxyethyl)amino)cyclohex-1-en-1-yl)-1H-pyrazolo[4,3-c]pyridin-3-yl)-2-fluorophenyl)-2-chlorobenzenesulfonamide] | 7.77 | 7.15 | –
10 | COCCNC1CC=C(c2cnc(N)c3c(-c4ccc(NS(=O)(=O)Cc5ccccc5Cl)c(F)c4)nn(C(C)C)c23)CC1 (single isomer, unassigned) [Compound B54, N-(4-(4-amino-1-isopropyl-7-(4-((2-methoxyethyl)amino)cyclohex-1-en-1-yl)-1H-pyrazolo[4,3-c]pyridin-3-yl)-2-fluorophenyl)-1-(2-chlorophenyl)methanesulfonamide] | 8.70 | 7.55 | –
11 | COCCNC1CC=C(c2cnc(N)c3c(-c4ccc(NS(=O)(=O)Cc5ccccc5Cl)c(F)c4)nn(C(C)C)c23)CC1 (single isomer, unassigned) [Compound B55, N-(4-(4-amino-1-isopropyl-7-(4-((2-methoxyethyl)amino)cyclohex-1-en-1-yl)-1H-pyrazolo[4,3-c]pyridin-3-yl)-2-fluorophenyl)-1-(2-chlorophenyl)methanesulfonamide] | 9.05 | 8.05 | –
12 | CC(C)n1nc(-c2ccc(NS(=O)(=O)c3ccccc3F)c(F)c2)c2c(N)ncc(C3=CCC(NC4COC4)CC3)c21 (single isomer, unassigned) [Compound B58, N-(4-(4-amino-1-isopropyl-7-(4-(oxetan-3-ylamino)cyclohex-1-en-1-yl)-1H-pyrazolo[4,3-c]pyridin-3-yl)-2-fluorophenyl)-2-fluorobenzenesulfonamide] | 6.92 | 6.60 | –
13 | CCn1nc(-c2ccc(NS(=O)(=O)c3ccccc3Cl)c(F)c2)c2c(N)ncc(C3=CCC(NC4COC4)CC3)c21 (single isomer, unassigned) [Compound B61, N-(4-(4-amino-1-ethyl-7-(4-(oxetan-3-ylamino)cyclohex-1-en-1-yl)-1H-pyrazolo[4,3-c]pyridin-3-yl)-2-fluorophenyl)-2-chlorobenzenesulfonamide] | 7.47 | 6.96 | –
14 | CCn1nc(-c2ccc(NS(=O)(=O)c3ccccc3Cl)c(F)c2)c2c(N)ncc(C3=CCC(NC4COC4)CC3)c21 (single isomer, unassigned) [Compound B62, N-(4-(4-amino-1-ethyl-7-(4-(oxetan-3-ylamino)cyclohex-1-en-1-yl)-1H-pyrazolo[4,3-c]pyridin-3-yl)-2-fluorophenyl)-2-chlorobenzenesulfonamide] | 7.12 | 6.40 | –
15 | COCCN[C@H]1CC[C@H](c2cnc(N)c3c(-c4cc(F)c(NS(=O)(=O)c5cc(OC)ccc5Cl)cc4F)nn(C(C)C)c32)CC1 [Compound A2, N-(4-(4-amino-1-isopropyl-7-((1r,4r)-4-((2-methoxyethyl)amino)cyclohexyl)-1H-pyrazolo[4,3-c]pyridin-3-yl)-2,5-difluorophenyl)-2-chloro-5-methoxybenzenesulfonamide] | 8.34 | – | 8.52
16 | CC(C)n1nc(-c2cc(F)c(NS(=O)(=O)c3ccccc3F)cc2F)c2c(N)ncc([C@H]3CC[C@H](N4CCOCC4)CC3)c21 [Compound A3] | 7.80 | – | 7.82
17 | COCCN[C@H]1CC[C@H](c2cnc(N)c3c(-c4cc(F)c(NS(=O)(=O)c5cc(Cl)ccc5F)cc4F)nn(C(C)C)c32)CC1 [Compound A4, N-(4-(4-amino-1-isopropyl-7-((1r,4r)-4-((2-methoxyethyl)amino)cyclohexyl)-1H-pyrazolo[4,3-c]pyridin-3-yl)-2,5-difluorophenyl)-5-chloro-2-fluorobenzenesulfonamide] | 8.89 | – | 8.00
18 | COCCN[C@H]1CC[C@H](c2cnc(N)c3c(-c4cc(F)c(NS(=O)(=O)c5cc(OC(F)F)ccc5F)cc4F)nn(C(C)C)c32)CC1 [Compound A5, N-(4-(4-amino-1-isopropyl-7-((1r,4r)-4-((2-methoxyethyl)amino)cyclohexyl)-1H-pyrazolo[4,3-c]pyridin-3-yl)-2,5-difluorophenyl)-5-(difluoromethoxy)-2-fluorobenzenesulfonamide] | 8.72 | – | 7.60
19 | COCCN[C@H]1CC[C@H](c2cnc(N)c3c(-c4ccc(NS(=O)(=O)c5ccccc5F)c(F)c4)nn(C(C)C)c32)CC1 [Compound A6, N-(4-(4-amino-1-isopropyl-7-((1r,4r)-4-((2-methoxyethyl)amino)cyclohexyl)-1H-pyrazolo[4,3-c]pyridin-3-yl)-2-fluorophenyl)-2-fluorobenzenesulfonamide] | 8.59 | – | 8.57
20 | COCCN[C@H]1CC[C@H](c2cnc(N)c3c(-c4cc(F)c(NS(=O)(=O)c5cccc(OC)c5F)cc4F)nn(C(C)C)c32)CC1 [Compound A7, N-(4-(4-amino-1-isopropyl-7-((1r,4r)-4-((2-methoxyethyl)amino)cyclohexyl)-1H-pyrazolo[4,3-c]pyridin-3-yl)-2,5-difluorophenyl)-2-fluoro-3-methoxybenzenesulfonamide] | 8.54 | – | 7.62
21 | CCOc1ccc(F)c(S(=O)(=O)Nc2cc(F)c(-c3nn(C(C)C)c4c3c(N)ncc4[C@H]3CC[C@H](NCCOC)CC3)cc2F)c1 [Compound A8, N-(4-(4-amino-1-isopropyl-7-((1r,4r)-4-((2-methoxyethyl)amino)cyclohexyl)-1H-pyrazolo[4,3-c]pyridin-3-yl)-2,5-difluorophenyl)-5-ethoxy-2-fluorobenzenesulfonamide] | 8.72 | – | 8.41
